Results from patent publication US8871756B2 (Hoffmann-La Roche Inc., priority 2011, dated 2014).

Test system: RSV Long strain
Assay: Viral cytopathic effect (CPE) assay, anti-RSV activity
Type: cell-based, Respiratory Syncytial Virus
Conditions: human respiratory syncytial virus, 144 h, RSV Long strain (ATCC); cell viability after 6 days, Cell Counting kit-8
Summary of the method: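 Cells (6×10^3/well, DMEM with 10% FBS) were infected next day with RSV Long strain, at a dose giving approximately 80–90% CPE, alongside serial half-log compound dilutions. Viability was read after 6 days by CCK-8 absorbance at 450 nm (reference 630 nm), and EC50 was derived from it.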

Structure (SMILES) | EC50
Cc1ccc2nc(N3CCS(=O)(=O)c4ccccc4C3)cc(N3CCC(NC4COC4)C3)c2c1 (centres unmarked) [Example 45-2, 1-[2-(1,1-Dioxido-2,3-dihydro-1,4-benzothiazepin-4(5H)-yl)-6-methylquinolin-4-yl]-N-(oxetan-3-yl)pyrrolidin-3-amine] | 0.253 µM
Cc1ccc2nc(N3CCS(=O)(=O)c4ccccc4C3)cc(NCC3(C)CN=C(N)O3)c2c1 (centres unmarked) [Example 38-2, N-[(2-Amino-5-methyl-4,5-dihydro-1,3-oxazol-5-yl)methyl]-2-(1,1-dioxido-2,3-dihydro-1,4-benzothiazepin-4(5H)-yl)-6-methylquinolin-4-amine] | 0.302 µM
Cc1ccc2nc(N3CCS(=O)(=O)c4ccccc4C3)cc(CCCN)c2c1 [Example 96, 3-[2-(1,1-Dioxido-2,3-dihydro-1,4-benzothiazepin-4(5H)-yl)-6-methylquinolin-4-yl]propan-1-amine] | 2.83 µM
Cc1ccc2nc(N3CCS(=O)(=O)c4ccccc4C3)cc(NC(=O)N(C)C)c2c1 [Example 3-63, 3-[2-(1,1-Dioxido-2,3-dihydro-1,4-benzothiazepin-4(5H)-yl)-6-methylquinolin-4-yl]-1,1-dimethylurea] | 9.9 µM
NCCCNc1cc(N2CCS(=O)(=O)c3ccccc3C2)nc2ccc(O)cc12 [Example 29, 4-[(3-Aminopropyl)amino]-2-(1,1-dioxido-2,3-dihydro-1,4-benzothiazepin-4(5H)-yl)quinolin-6-ol] | 0.042 µM
Cc1ccc2nc(N3CCS(=O)(=O)c4ccccc4C3)cc(NC(=O)[C@H](C)N)c2c1 [Example 40-3, N-[2-(1,1-Dioxido-2,3-dihydro-1,4-benzothiazepin-4(5H)-yl)-6-methylquinolin-4-yl]alaninamide] | 0.917 µM
Cc1ccc2nc(N3CCS(=O)(=O)c4ccccc4C3)cc(NCCCO)c2c1 [Example 9-5, 3-{[2-(1,1-Dioxido-2,3-dihydro-1,4-benzothiazepin-4(5H)-yl)-6-methylquinolin-4-yl]amino}propan-1-ol] | 0.179 µM
CCNc1cc(N2CCS(=O)(=O)c3ccccc3C2)nc2ccc(Cl)cc12 [Example 9-30, 6-Chloro-2-(1,1-dioxido-2,3-dihydro-1,4-benzothiazepin-4(5H)-yl)-N-ethylquinolin-4-amine] | 8.59 µM
Cc1ccc2nc(N3CCS(=O)(=O)c4ccccc4C3)cc(NCCNC3COC3)c2c1 [Example 45-3, N-[2-(1,1-Dioxido-2,3-dihydro-1,4-benzothiazepin-4(5H)-yl)-6-methylquinolin-4-yl]-N′-(oxetan-3-yl)ethane-1,2-diamine] | 0.031 µM
Cc1ccc2nc(N3CCS(=O)(=O)c4ccccc4C3)cc(NCCSCCN)c2c1 [Example 8-7, N-{2-[(2-Aminoethyl)sulfanyl]ethyl}-2-(1,1-dioxido-2,3-dihydro-1,4-benzothiazepin-4(5H)-yl)-6-methylquinolin-4-amine] | 0.322 µM
N#Cc1ccc2nc(N3CCS(=O)(=O)c4ccccc4C3)cc(NCCCN)c2c1 [Example 52, 4-[(3-Aminopropyl)amino]-2-(1,1-dioxido-2,3-dihydro-1,4-benzothiazepin-4(5H)-yl)quinoline-6-carbonitrile] | 0.419 µM
NC1(CNc2nc(N3CC[S+]([O-])c4ccccc4C3)nc3ccc(Cl)cc23)COC1 (centres unmarked) [Example 57-5, N-[(3-Aminooxetan-3-yl)methyl]-6-chloro-2-(1-oxido-2,3-dihydro-1,4-benzothiazepin-4(5H)-yl)quinazolin-4-amine] | 0.027 µM
CCN(CCNc1cc(N2CCS(=O)(=O)c3ccccc3C2)nc2ccc(C)cc12)C1COC1 [Example 44-2, N′-[2-(1,1-Dioxido-2,3-dihydro-1,4-benzothiazepin-4(5H)-yl)-6-methylquinolin-4-yl]-N-ethyl-N-(oxetan-3-yl)ethane-1,2-diamine] | 1.55 µM
Cc1ccc2nc(N3CCS(=O)(=O)c4ccccc4C3)cc(OCCN)c2c1 [Example 97, 2-{[2-(1,1-Dioxido-2,3-dihydro-1,4-benzothiazepin-4(5H)-yl)-6-methylquinolin-4-yl]oxy}ethanamine] | 0.177 µM
Cc1ccc2nc(N3CCS(=O)(=O)c4ccccc4C3)cc(NCCC3(N)COC3)c2c1 [Example 2-7, N-[2-(3-Aminooxetan-3-yl)ethyl]-2-(1,1-dioxido-2,3-dihydro-1,4-benzothiazepin-4(5H)-yl)-6-methylquinolin-4-amine] | 0.234 µM
Cc1ccc2nc(N3CCS(=O)(=O)c4ccccc4C3)cc(OC3CCNCC3)c2c1 [Example 98-2] | 3.16 µM
NCCNc1cc(N2CCSc3ccccc3C2)nc2ccc(Cl)cc12 [Example 4-2, N-[6-Chloro-2-(2,3-dihydro-1,4-benzothiazepin-4(5H)-yl)quinolin-4-yl]ethane-1,2-diamine] | 0.098 µM
CC(=O)Nc1nc(N2CCS(=O)(=O)c3ccccc3C2)nc2ccc(C)cc12 [Example 63-4, N-[2-(1,1-Dioxido-2,3-dihydro-1,4-benzothiazepin-4(5H)-yl)-6-methylquinazolin-4-yl]acetamide] | 0.797 µM
Cc1ccc2nc(N3CCS(=O)(=O)c4ccccc4C3)cc(Nc3cc[nH]n3)c2c1 [Example 47-3, 2-(1,1-Dioxido-2,3-dihydro-1,4-benzothiazepin-4(5H)-yl)-6-methyl-N-(1H-pyrazol-3-yl)quinolin-4-amine] | 5.69 µM
CS(=O)(=O)c1ccc2c(c1)CCCN(c1cc(NCCN)c3ccccc3n1)C2 [Example 120-1, N-{2-[7-(Methylsulfonyl)-1,3,4,5-tetrahydro-2H-2-benzazepin-2-yl]quinolin-4-yl}ethane-1,2-diamine] | 2.19 µM
Nc1cc(N2CCS(=O)(=O)c3cc(OCCCO)ccc3C2)nc2ccccc12 [Example 34, 3-{[4-(4-Aminoquinolin-2-yl)-1,1-dioxido-2,3,4,5-tetrahydro-1,4-benzothiazepin-8-yl]oxy}propan-1-ol] | 2.09 µM
CC(C)(N)CNc1cc(N2CCS(=O)(=O)c3ccccc3C2)nc2ccccc12 [Example 5-4, N˜1˜-[2-(1,1-Dioxido-2,3-dihydro-1,4-benzothiazepin-4(5H)-yl)quinolin-4-yl]-2-methylpropane-1,2-diamine] | 0.326 µM
NCCCNc1cc(N2CCS(=O)(=O)c3ccccc3C2)nc2ccc(OCCO)cc12 [Example 30-1, 2-({4-[(3-Aminopropyl)amino]-2-(1,1-dioxido-2,3-dihydro-1,4-benzothiazepin-4(5 H)-yl)quinolin-6-yl}oxy)ethanol] | 0.317 µM

Molecules with a lower EC50, results first:

EC50 | Structure (SMILES)
0.026 µM | Cc1ccc2nc(N3CCSc4ccccc4C3)cc(NCC3(N)COC3)c2c1 [Example 4-3, N-[(3-Aminooxetan-3-yl)methyl]-2-(2,3-dihydro-1,4-benzothiazepin-4(5 H)-yl)-6-methylquinolin-4-amine]
0.023 µM | NCCNc1cc(N2CC[S+]([O-])c3ccccc3C2)nc2ccc(Cl)cc12 (centres unmarked) [Example 18-7, N-[6-Chloro-2-(1-oxido-2,3-dihydro-1,4-benzothiazepin-4(5H)-yl)quinolin-4-yl]ethane-1,2-diamine]
0.022 µM | Cc1ccc2nc(N3CCS(=O)(=O)c4ccccc4C3)nc(NCC(F)CN)c2c1 (centres unmarked) [Example 56-5, N-[2-(1,1-Dioxido-2,3-dihydro-1,4-benzothiazepin-4(5H)-yl)-6-methylquinazolin-4-yl]-2-fluoropropane-1,3-diamine]
0.021 µM | NCC1(CNc2cc(N3CCS(=O)(=O)c4ccccc4C3)nc3ccc(F)cc23)COC1 [Example 17-8, N-{[3-(Aminomethyl)oxetan-3-yl]methyl}-2-(1,1-dioxido-2,3-dihydro-1,4-benzothiazepin-4(5H)-yl)-6-fluoroquinolin-4-amine]
0.009 µM | Cc1ccc2nc(N3CCS(=O)(=O)c4ccccc4C3)cc(NC(=O)c3ccccn3)c2c1 [Example 48, N-[2-(1,1-Dioxido-2,3-dihydro-1,4-benzothiazepin-4(5H)-yl)-6-methylquinolin-4-yl]pyridine-2-carboxamide]
0.007 µM | Cc1ccc2nc(N3CCC(=O)c4ccccc4C3)nc(NCC3(N)COC3)c2c1 [Example 114-1, 2-(4-{[(3-Aminooxetan-3-yl)methyl]amino}-6-methylquinazolin-2-yl)-1,2,3,4-tetrahydro-5H-2-benzazepin-5-one]
0.007 µM | Cc1ccc2nc(N3Cc4ccccc4S(=O)(=O)C(C)C3)cc(NCC3(N)COC3)c2c1 (centres unmarked) [Example 69-2, N-[(3-Aminooxetan-3-yl)methyl]-6-methyl-2-(2-methyl-1,1-dioxido-2,3-dihydro-1,4-benzothiazepin-4(5H)-yl)quinolin-4-amine]
0.007 µM | Cc1ccc2nc(N3CCS(=O)(=O)c4ccccc4C3)cc(NCC3(N)CC3)c2c1 [Example 21-5, (1-Amino-cyclopropylmethyl)-[2-(5,5-dioxo-5,6,7,9-tetrahydro-5λ^6-thia-8-aza-benzocyclohepten-8-yl)-6-methyl-quinolin-4-yl]-amine]
0.006 µM | Cc1ccc2c(c1)S(=O)(=O)CCN(c1cc(NCC3(N)COC3)c3cc(C)ccc3n1)C2 [Example 2-5, N-[(3-Aminooxetan-3-yl)methyl]-6-methyl-2-(8-methyl-1,1-dioxido-2,3-dihydro-1,4-benzothiazepin-4(5H)-yl)quinolin-4-amine]
0.006 µM | Cc1ccc2nc(N3CCSc4ccccc4C3)nc(NCC3(CN)COC3)c2c1 [Example 62-6, N-{[3-(Aminomethyl)oxetan-3-yl]methyl}-2-(2,3-dihydro-1,4-benzothiazepin-4(5H)-yl)-6-methylquinazolin-4-amine]
0.005 µM | Cc1ccc2nc(N3CCS(=O)(=O)c4ccccc4C3)nc(NCC3(N)COC3)c2c1 [Example 61-1, N-[(3-Aminooxetan-3-yl)methyl]-2-(1,1-dioxido-2,3-dihydro-1,4-benzothiazepin-4(5H)-yl)-6-methylquinazolin-4-amine]
0.002 µM | COc1ccc2c(c1)CN(c1cc(NCC3(CN)COC3)c3cc(C)ccc3n1)CCS2(=O)=O [Example 3-5, N-{[3-(Aminomethyl)oxetan-3-yl]methyl}-2-(7-methoxy-1,1-dioxido-2,3-dihydro-1,4-benzothiazepin-4(5H)-yl)-6-methylquinolin-4-amine]
